The source of these data is PubChem BioAssay AID180 (DTP/NCI, 2004).

The test has as its system BDF1 mice, Adenocarcinoma 755 s.c., tumor weight T/C. The test is described as follows: NCI In Vivo Anticancer Drug Screen. Data for tumor model Adenocarcinoma 755 (subcutaneous) in B6D2F1 (BDF1) mice. As to conditions: endpoint: mean tumor weight, higher = larger tumour. In a few lines: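 Readout: T/C, i.e. treated-group measurement over vehicle-control measurement. Endpoint is survival or tumor size in tumor-bearing mice given compound.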

The mark [1] stands for this setting: dose: 25.0 mg/kg/injection, schedule: Q01DX011 (ip), vehicle: methylcellulose (MC).
The mark [2] stands for this setting: dose: 30.0 mg/kg/injection, schedule: Q01DX011 (ip), vehicle: carboxymethylcellulose (CMC).
[3] abbreviates: dose: 100.0 mg/kg/injection, schedule: Q01DX011 (ip), vehicle: carboxymethylcellulose (CMC).
Where [4] appears, read: dose: 20.0 mg/kg/injection, schedule: Q01DX011 (ip), vehicle: carboxymethylcellulose (CMC).
The mark [5] stands for this setting: dose: 40.0 mg/kg/injection, schedule: Q01DX011 (ip), vehicle: carboxymethylcellulose (CMC).

“And” between values parts separate entries of the source, which are not always exact repeats. Identical values can stand only once.

For orientation: T/C means the result in the treated group divided by that in the control group, in per cent. In the case of `O=C(Nc1ncnc2nc[nH]c12)C(Cl)Cl`, where the note is “dose: 100.0 mg/kg/injection, schedule: Q01DX011 (ip), vehicle: saline”, the T/C is 77 % of control.
As to `CS(=O)(=O)OCCCCCOS(C)(=O)=O`, the T/C is, setting by setting: (dose: 4.5 mg/kg/injection, schedule: Q01DX011 (ip), vehicle: carboxymethylcellulose (CMC)) 110 % of control; (dose: 9.0 mg/kg/injection, schedule: Q01DX011 (ip), vehicle: carboxymethylcellulose (CMC)) 86 % of control; (dose: 18.0 mg/kg/injection, schedule: Q01DX011 (ip), vehicle: carboxymethylcellulose (CMC)) 67 % of control; under setting [1], 11 % of control; (dose: 37.0 mg/kg/injection, schedule: Q01DX011 (ip), vehicle: carboxymethylcellulose (CMC)) 3 % of control.
Turning to `Clc1ncc2[nH]c(Cl)nc2n1`, the T/C was 96 % of control under setting [2] and 112 % of control (dose: 60.0 mg/kg/injection, schedule: Q01DX011 (ip), vehicle: carboxymethylcellulose (CMC)).
For the molecule `CC(=O)NNC(=O)c1ccccn1`, the T/C is 68 % of control (dose: 75.0 mg/kg/injection, schedule: Q01DX011 (ip), vehicle: water) and 37 % of control (dose: 100.0 mg/kg/injection, schedule: Q01DX011 (ip), vehicle: water).
Consider `Nc1nc(SCCc2ccccc2)c2[nH]cnc2n1`, for which the T/C runs as follows: (dose: 31.25 mg/kg/injection, schedule: Q01DX011 (ip), vehicle: carboxymethylcellulose (CMC)) 106 % of control; (dose: 50.0 mg/kg/injection, schedule: Q01DX011 (ip), vehicle: carboxymethylcellulose (CMC)) 97 % of control; (dose: 62.5 mg/kg/injection, schedule: Q01DX011 (ip), vehicle: carboxymethylcellulose (CMC)) 52 % of control; under setting [3], 81 % of control; (dose: 125.0 mg/kg/injection, schedule: Q01DX011 (ip), vehicle: carboxymethylcellulose (CMC)) 19 % of control; (dose: 200.0 mg/kg/injection, schedule: Q01DX011 (ip), vehicle: carboxymethylcellulose (CMC)) 74 % of control. Further, the T/C is 6 % of control (dose: 250.0 mg/kg/injection, schedule: Q01DX011 (ip), vehicle: carboxymethylcellulose (CMC)); 75 % of control (dose: 400.0 mg/kg/injection, schedule: Q01DX011 (ip), vehicle: carboxymethylcellulose (CMC)); 22 % of control (dose: 800.0 mg/kg/injection, schedule: Q01DX011 (ip), vehicle: carboxymethylcellulose (CMC)).
`C[C@]12CCC(=O)C=C1CC[C@@H]1[C@@H]2[C@@H](O)C[C@]2(C)C(=O)CC[C@@H]12`: the T/C (dose: 100.0 mg/kg/injection, schedule: Q01DX011 (sc), vehicle: steriod suspending solution) is 107 % of control and the T/C (dose: 200.0 mg/kg/injection, schedule: Q01DX011 (sc), vehicle: steriod suspending solution) is 83 % of control.
Take `CCN(CC)CCC(=O)N1CCN(C(=O)CCN(CC)CC)CC1`: the T/C (dose: 3.8 mg/kg/injection, schedule: Q01DX011 (ip), vehicle: methylcellulose (MC)) is 110 % of control; the T/C (dose: 7.5 mg/kg/injection, schedule: Q01DX011 (ip), vehicle: methylcellulose (MC)) is 113 % of control; the T/C (dose: 15.0 mg/kg/injection, schedule: Q01DX011 (ip), vehicle: methylcellulose (MC)) is 71 % of control; the T/C (dose: 30.0 mg/kg/injection, schedule: Q01DX011 (ip), vehicle: methylcellulose (MC)) was 79 % of control; the T/C (dose: 30.0 mg/kg/injection, schedule: Q01DX011 (ip), vehicle: saline) was 119 % of control; the T/C (dose: 60.0 mg/kg/injection, schedule: Q01DX011 (ip), vehicle: saline) is 105 % of control.
Turning to `Cc1cc(N(CCCl)CCCl)ccc1N=Nc1ccccc1C(=O)O`, the T/C was 115 % of control (dose: 0.44 mg/kg/injection, schedule: Q01DX011 (ip), vehicle: carboxymethylcellulose (CMC)); 39 % of control (dose: 0.87 mg/kg/injection, schedule: Q01DX011 (ip), vehicle: carboxymethylcellulose (CMC)); 53 % of control (dose: 1.75 mg/kg/injection, schedule: Q01DX011 (ip), vehicle: carboxymethylcellulose (CMC)); 20 % of control (dose: 3.5 mg/kg/injection, schedule: Q01DX011 (ip), vehicle: carboxymethylcellulose (CMC)).
Turning to `CCCCn1cnc2c(SCc3cccc(F)c3)nc(N)nc21`, the T/C (dose: 3.1 mg/kg/injection, schedule: Q01DX011 (ip), vehicle: methylcellulose (MC)) was 50 % of control; the T/C (dose: 6.25 mg/kg/injection, schedule: Q01DX011 (ip), vehicle: methylcellulose (MC)) is 61 % of control; the T/C (dose: 12.5 mg/kg/injection, schedule: Q01DX011 (ip), vehicle: methylcellulose (MC)) is 23 % of control; the T/C under setting [1] is 1 % of control and 8 % of control.
Regarding `CN(C)c1ccc2nc3ccc(=[N+](C)C)cc-3sc2c1`, the T/C by setting is: (dose: 5.0 mg/kg/injection, schedule: Q01DX011 (ip), vehicle: carboxymethylcellulose (CMC)) 51 % of control; (dose: 5.24 mg/kg/injection, schedule: Q01DX011 (ip), vehicle: carboxymethylcellulose (CMC)) 69 % of control; (dose: 5.76 mg/kg/injection, schedule: Q01DX011 (ip), vehicle: carboxymethylcellulose (CMC)) 103 % of control; (dose: 10.0 mg/kg/injection, schedule: Q01DX011 (ip), vehicle: carboxymethylcellulose (CMC)) 99 % of control; (dose: 10.48 mg/kg/injection, schedule: Q01DX011 (ip), vehicle: carboxymethylcellulose (CMC)) 109 % of control; (dose: 11.53 mg/kg/injection, schedule: Q01DX011 (ip), vehicle: carboxymethylcellulose (CMC)) 97 % of control. Further, the T/C by setting is: under setting [4], 113 % of control; (dose: 20.95 mg/kg/injection, schedule: Q01DX011 (ip), vehicle: carboxymethylcellulose (CMC)) 100 % of control; (dose: 25.0 mg/kg/injection, schedule: Q01DX011 (ip), vehicle: carboxymethylcellulose (CMC)) 123 % of control; under setting [2], 103 % of control; (dose: 35.0 mg/kg/injection, schedule: Q01DX011 (ip), vehicle: carboxymethylcellulose (CMC)) 104 % of control; under setting [5], 68 % of control.
In the case of `CC12CCC3C(CCC4CC=CCC43C)C1CCC2=O` (centres undefined), the T/C (dose: 62.55 mg/kg/injection, schedule: Q01DX011 (sc), vehicle: steriod suspending solution) is 90 % of control; the T/C (dose: 125.0 mg/kg/injection, schedule: Q01DX011 (sc), vehicle: steriod suspending solution) was 99 % of control; the T/C (dose: 250.0 mg/kg/injection, schedule: Q01DX011 (sc), vehicle: steriod suspending solution) is 60 % of control; the T/C (dose: 500.0 mg/kg/injection, schedule: Q01DX011 (sc), vehicle: steriod suspending solution) is 84 % of control.
As for `CSc1ncc(Br)c(Sc2nc(N)nc3nc[nH]c23)n1`, the T/C was 75 % of control (dose: 1.0 mg/kg/injection, schedule: Q01DX011 (ip), vehicle: methylcellulose (MC)); 87 % of control (dose: 3.0 mg/kg/injection, schedule: Q01DX011 (ip), vehicle: methylcellulose (MC)); 14 % of control (dose: 6.0 mg/kg/injection, schedule: Q01DX011 (ip), vehicle: methylcellulose (MC)); 3 % of control (dose: 12.0 mg/kg/injection, schedule: Q01DX011 (ip), vehicle: methylcellulose (MC)); 10 % of control (dose: 15.0 mg/kg/injection, schedule: Q01DX011 (ip), vehicle: carboxymethylcellulose (CMC)).
Consider `NC(N)=Nc1nc2ccccc2o1`, for which the T/C is 109 % of control (dose: 55.0 mg/kg/injection, schedule: Q01DX011 (ip), vehicle: methylcellulose (MC)); 99 % of control (dose: 110.0 mg/kg/injection, schedule: Q01DX011 (ip), vehicle: methylcellulose (MC)); 94 % of control (dose: 220.0 mg/kg/injection, schedule: Q01DX011 (ip), vehicle: methylcellulose (MC)); 66 % of control (dose: 330.0 mg/kg/injection, schedule: Q01DX011 (ip), vehicle: methylcellulose (MC)); 78 % of control (dose: 440.0 mg/kg/injection, schedule: Q01DX011 (ip), vehicle: methylcellulose (MC)).
With `CCc1c(CC(=O)O)c2cc(C)ccc2n1Cc1ccc(Cl)cc1`, the T/C was 87 % of control under setting [4]; 119 % of control under setting [5]; 97 % of control (dose: 80.0 mg/kg/injection, schedule: Q01DX011 (ip), vehicle: carboxymethylcellulose (CMC)); 37 % of control under setting [3].
For the molecule `COc1ccc(-n2cnc3c(N)nc(N)nc32)cc1`, the T/C under setting [1] was 68 % of control; the T/C (dose: 50.0 mg/kg/injection, schedule: Q01DX011 (ip), vehicle: methylcellulose (MC)) is 62 % of control; the T/C (dose: 100.0 mg/kg/injection, schedule: Q01DX011 (ip), vehicle: methylcellulose (MC)) was 50 % of control; the T/C (dose: 200.0 mg/kg/injection, schedule: Q01DX011 (ip), vehicle: methylcellulose (MC)) is 57 % of control.
